The term IC50 denotes the concentration needed to halve the response being measured. By AUC is commonly meant concentration integrated over time. As usually defined, the half-life is how long it takes for the measured level to halve. For orientation: Cmax means the peak of the concentration-time curve. What is called Tmax is the time from dosing to the highest level. Broadly, the bioavailability is dose-corrected exposure relative to a reference, in per cent.

Here are results for 2 molecules from patent publication US20230365541A1, “INHIBITOR OF ENHANCER OF ZESTE HOMOLOGUE 2, AND USE THEREOF” (HAISCO PHARMACEUTICALS PTE. LTD., priority 2020, published 2023).

The target of one series is CYP2C19 (Homo sapiens (Human), UniProt P33261). Briefly: Cytochrome P450 isozyme inhibition experiment, CYP2C19. Particulars: human liver microsomes. It is filed as in vitro ADME. On the procedure:
(§1) Experimental objective: the inhibitory effects of test compounds on the activity of human liver microsomal cytochrome P450 isozymes (CYP1A2, CYP2C9, CYP2C19, CYP2D6 and CYP3A4) were determined. […]
(Liver microsomes are a subcellular fraction often used to study metabolism.)

A further series concerns SU-DHL-6 cells. Briefly: SU-DHL-6 cell proliferation test. Particulars: incubated for 14 days. In kind it is cell-based, human. An outline of the steps: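 SU-DHL-6 B-cell lymphoma cells seeded at 1×10^5 cells/mL in RPMI-1640/10% FBS with compound at 37 °C. Every 3-4 days cells were counted, reset to 1×10^5 cells/mL and re-dosed; IC50 derived from counts at day 14.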
A short description of series [1]: Pharmacokinetic experiment in monkeys. In kind it is in vivo. Particulars: male, cynomolgus monkey, plasma. Here is the method: Experimental animal: twelve cynomolgus monkeys, 2.4-5.9 kg, male, 3-5.5 years old, purchased from Suzhou Xishan Zhongke Laboratory Animal Co., Ltd, with the production license number of SCXK(SU) 2018-0001.
Before and after the administration, 1.0 mL of blood was taken from the front and rear limb veins of the animals, and placed in an EDTAK2 centrifuge tube. […] Before analysis and detection, all plasma samples were stored at −80° C.

Another series concerns the target EZH2 (Homo sapiens (Human), UniProt Q15910). Briefly: Test method for EZH2 enzyme activity. Particulars: H3K27(21-44) and [3H]-SAM. It is filed as biochemical. The method, boiled down: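 EZH2 (3 nM final) preincubated 15 min with compound in Tris-HCl pH 9.0 buffer, then H3K27(21-44) peptide and [3H]-SAM added (mixture at 200 nM and 100 nM) for 60 min at room temperature. Reaction quenched with cold SAM; flashplate scintillation read, inhibition normalized to controls and IC50 fitted.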

For another series, the target named is CYP3A4 (Homo sapiens (Human), UniProt P08684). Briefly: Cytochrome P450 isozyme inhibition experiment, CYP3A4. It is filed as in vitro ADME. Particulars: human liver microsomes, CYP3A4-M. On the procedure:
as §1

A further series has as its target CYP2D6 (Homo sapiens (Human), UniProt P10635). Briefly: Cytochrome P450 isozyme inhibition experiment, CYP2D6. In kind it is in vitro ADME. Particulars: human liver microsomes. On the procedure: as §1
In the next series the target is CYP1A2 (Homo sapiens (Human), UniProt P05177). The series is described as follows: Cytochrome P450 isozyme inhibition experiment, CYP1A2. It is filed as in vitro ADME. Particulars: human liver microsomes. On the procedure:
as §1

The next series concerns the target CYP2C9 (Homo sapiens (Human), UniProt P11712). Briefly: Cytochrome P450 isozyme inhibition experiment, CYP2C9. It is filed as in vitro ADME. Particulars: human liver microsomes. On the procedure:
as §1

Series [2] can be described thus: Pharmacokinetic experiment in mice (intravenous 5 mg/kg or intragastric 30 mg/kg). Particulars: male, ICR, mouse, plasma; for AUC: read-out: AUC. It is filed as in vivo. Here is the method:
The administration was performed according to table 5.
The concentrations of the compounds in EDTA-K2 anticoagulant plasma were determined by the LC-MS/MS method. The linear range of the standard curve of the compounds is 2-2000 ng/mL. After subjected to precipitating proteins with acetonitrile, the samples were analyzed by LC-MS/MS. The standard curve was subjected to a regression calculation using the weighted least square method (W=1/X^2), and quantified by calculating the ratio of test compound peak area to internal standard peak area.
• (1) except to the blank sample, 400 μL of internal standard working solution (Verapamil internal standard concentration in precipitant acetonitrile is 10.0 ng/mL) was added to a 1.5 mL centrifuge tube containing 30 μL of standard curve samples and quality control samples; • 200 μL of internal standard working solution (Verapamil internal standard concentration in precipitant acetonitrile is 10.0 ng/mL) was added to a 1.5 mL centrifuge tube containing 15 μL of unknown samples; • and 400 μL of acetonitrile was added to the blank sample; • (2) the mixture was mixed evenly for about 1 min in a vortex mixer; • (3) centrifugation was carried out at 10000 rpm at 4C for 10 mi; • (4) 175 μL of the supernatant was transferred to a new 96-well polypropylene plate, and then the plate was sealed and placed in a 10° C. sample tray for injection.

Each structure is given as a SMILES string.

CYP2D6, sequence (P10635 whole entry): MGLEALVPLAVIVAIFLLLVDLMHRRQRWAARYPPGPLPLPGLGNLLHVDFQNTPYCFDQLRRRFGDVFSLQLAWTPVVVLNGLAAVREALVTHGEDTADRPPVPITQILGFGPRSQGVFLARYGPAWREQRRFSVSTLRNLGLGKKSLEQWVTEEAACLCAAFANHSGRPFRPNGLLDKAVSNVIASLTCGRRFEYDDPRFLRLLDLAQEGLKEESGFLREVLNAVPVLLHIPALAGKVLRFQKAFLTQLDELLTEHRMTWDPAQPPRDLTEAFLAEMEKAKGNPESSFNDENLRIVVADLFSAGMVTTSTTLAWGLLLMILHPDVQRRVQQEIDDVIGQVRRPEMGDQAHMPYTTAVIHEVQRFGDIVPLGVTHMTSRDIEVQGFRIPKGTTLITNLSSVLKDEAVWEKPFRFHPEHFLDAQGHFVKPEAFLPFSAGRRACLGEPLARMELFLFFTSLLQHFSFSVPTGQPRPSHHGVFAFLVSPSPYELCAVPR
CYP1A2, sequence (P05177 whole entry): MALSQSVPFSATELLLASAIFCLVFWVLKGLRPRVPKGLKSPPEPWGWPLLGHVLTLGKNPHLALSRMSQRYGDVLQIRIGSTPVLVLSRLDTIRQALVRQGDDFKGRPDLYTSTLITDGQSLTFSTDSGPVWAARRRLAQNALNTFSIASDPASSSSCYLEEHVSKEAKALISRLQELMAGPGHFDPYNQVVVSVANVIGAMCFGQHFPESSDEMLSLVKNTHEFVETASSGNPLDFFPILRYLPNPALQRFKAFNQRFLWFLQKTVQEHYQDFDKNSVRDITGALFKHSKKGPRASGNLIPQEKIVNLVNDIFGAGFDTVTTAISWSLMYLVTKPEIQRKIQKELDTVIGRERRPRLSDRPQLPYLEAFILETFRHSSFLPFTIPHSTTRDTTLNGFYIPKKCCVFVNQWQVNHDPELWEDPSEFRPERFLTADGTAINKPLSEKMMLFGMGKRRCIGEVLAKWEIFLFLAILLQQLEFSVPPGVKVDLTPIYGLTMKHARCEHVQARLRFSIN
CYP2C9, sequence (P11712 whole entry): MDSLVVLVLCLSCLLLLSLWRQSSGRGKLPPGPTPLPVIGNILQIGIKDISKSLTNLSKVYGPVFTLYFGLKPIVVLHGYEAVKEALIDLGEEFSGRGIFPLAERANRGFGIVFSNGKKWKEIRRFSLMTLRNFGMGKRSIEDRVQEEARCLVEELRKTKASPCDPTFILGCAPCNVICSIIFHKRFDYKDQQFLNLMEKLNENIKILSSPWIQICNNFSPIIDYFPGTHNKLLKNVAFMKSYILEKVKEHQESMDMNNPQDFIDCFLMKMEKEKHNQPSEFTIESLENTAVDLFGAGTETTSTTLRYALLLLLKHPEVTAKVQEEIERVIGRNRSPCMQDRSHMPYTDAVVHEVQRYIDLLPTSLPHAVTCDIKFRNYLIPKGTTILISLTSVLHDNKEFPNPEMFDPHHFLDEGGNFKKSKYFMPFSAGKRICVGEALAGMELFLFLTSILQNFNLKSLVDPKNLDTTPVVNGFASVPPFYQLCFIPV
CYP2C19, sequence (P33261 whole entry): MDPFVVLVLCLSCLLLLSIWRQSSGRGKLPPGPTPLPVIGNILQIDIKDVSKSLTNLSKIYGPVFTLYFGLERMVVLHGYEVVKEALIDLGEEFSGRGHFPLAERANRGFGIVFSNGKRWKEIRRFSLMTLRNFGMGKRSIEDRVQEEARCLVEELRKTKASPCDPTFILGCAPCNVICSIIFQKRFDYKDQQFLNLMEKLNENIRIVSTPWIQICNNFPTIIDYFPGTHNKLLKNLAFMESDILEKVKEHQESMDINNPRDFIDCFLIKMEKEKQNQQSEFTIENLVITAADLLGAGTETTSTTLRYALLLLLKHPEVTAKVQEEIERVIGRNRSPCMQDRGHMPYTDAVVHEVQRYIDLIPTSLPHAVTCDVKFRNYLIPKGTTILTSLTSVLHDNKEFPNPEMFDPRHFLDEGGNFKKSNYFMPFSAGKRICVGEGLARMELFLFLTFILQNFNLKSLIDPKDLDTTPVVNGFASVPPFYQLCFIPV
CYP3A4, sequence (P08684 whole entry): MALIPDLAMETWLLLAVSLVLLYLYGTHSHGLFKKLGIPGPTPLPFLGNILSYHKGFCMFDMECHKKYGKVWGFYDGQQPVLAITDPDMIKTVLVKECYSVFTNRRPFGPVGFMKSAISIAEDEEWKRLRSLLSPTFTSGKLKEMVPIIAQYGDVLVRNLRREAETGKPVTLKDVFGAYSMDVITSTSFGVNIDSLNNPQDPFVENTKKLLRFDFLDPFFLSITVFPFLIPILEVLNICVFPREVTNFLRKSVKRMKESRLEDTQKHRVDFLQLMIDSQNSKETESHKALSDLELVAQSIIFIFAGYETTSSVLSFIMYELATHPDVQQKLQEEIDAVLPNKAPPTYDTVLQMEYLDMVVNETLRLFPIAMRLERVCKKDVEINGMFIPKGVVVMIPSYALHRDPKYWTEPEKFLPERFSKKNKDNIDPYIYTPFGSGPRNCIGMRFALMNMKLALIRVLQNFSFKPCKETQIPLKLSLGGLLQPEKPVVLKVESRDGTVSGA

Take `[2H]C([2H])(NC(=O)c1cc(Cl)c2c(c1C)OC(C)(C1CCC(NC3COC3)CC1)O2)c1c(SC)cc(C)[nH]c1=O` (single isomer, unassigned) [Compound 59, isomer 2, 7-chloro-2,4-dimethyl-N-((6-methyl-4-(methylthio)-2-oxo-1,2-dihydropyridin-3-yl)methyl-d2)-2-(4-(oxetan-3-ylamino)cyclohexyl)benzo[d][1,3]dioxole-5-carboxamide]: the IC50 against CYP2C19 is greater than 50 µM; in the series with SU-DHL-6 cells, 0.00635 µM; at EZH2, 0.00044 µM; at CYP3A4 it was greater than 50 µM; against CYP2D6 it was greater than 50 µM; against CYP1A2 it was greater than 50 µM. The half-inhibitory concentration (IC50) against CYP2C9 was greater than 50 µM. Further, the AUC came out at 1570 ± 39 ng·h/mL in series [1] (IV 3 mg/kg) and 3310 ± 526 ng·h/mL in [1] (PO 15 mg/kg). In series [1] (IV 3 mg/kg), this molecule gave a C0 of 2960 ± 601 ng/mL. The half-life in series [1] (IV 3 mg/kg) was 2.68 ± 0.14 h; in series [1] (PO 15 mg/kg), 5.11 ± 0.32 h. The molecule also registered a Cmax in [1] (PO 15 mg/kg) of 2320 ± 562 ng/mL. Besides, the time to peak (Tmax) in [1] (PO 15 mg/kg) is 1 h. In series [1] (PO 15 mg/kg vs IV 3 mg/kg), this molecule showed a bioavailability of 42.1 ± 6.7%.
As to `Cc1cc(C)c(CNC(=O)c2cc(Cl)c3c(c2C)O[C@@](C)([C@H]2CC[C@H](N(C)C)CC2)O3)c(=O)[nH]1` [Compound I-2, Valemetostat, reference compound], the half-maximal inhibitory concentration (IC50) against CYP2C19 was greater than 50 µM; against CYP3A4, 16.3 µM; on CYP2D6 it was greater than 50 µM; against CYP1A2, greater than 50 µM; against CYP2C9, greater than 50 µM. Besides, the half-life in [2] (iv, 5 mg/kg, IV 5 mg/kg) was 6.31 h; in series [2] (po, 30 mg/kg, PO 30 mg/kg), 3.05 h. Further, the AUC was found to be 1180 ng·h/mL in [2] (iv, 5 mg/kg, IV 5 mg/kg) and 645 ng·h/mL in [2] (po, 30 mg/kg, PO 30 mg/kg). The C0 in series [2] (iv, 5 mg/kg, IV 5 mg/kg, read-out: C0) came to 2140 ng/mL. Also, in series [2] (po, 30 mg/kg, PO 30 mg/kg vs IV 5 mg/kg), the bioavailability came to 9.08%. Moreover, the peak concentration (Cmax) in [2] (po, 30 mg/kg, PO 30 mg/kg, read-out: Cmax) was 262 ng/mL. For the same molecule, the Tmax in series [2] (po, 30 mg/kg, PO 30 mg/kg, read-out: Tmax) was found to be 0.25 h.
